Test results taken from patent US20260232670A1, “TYRO3 SELECTIVE INHIBITORS AND USES THEREOF” (THE UNIVERSITY OF NORTH CAROLINA AT CHAPEL HILL, priority 2023, published 2026).

Experiments:
Format in all cases: biochemical
AXL = target: T1, AXL (Homo sapiens, UniProt P30530); test: Microfluidic capillary electrophoresis (MCE) kinase activity assay, Axl; settings: Table 2; MCE assay, ATP at Km
T1 sequence (P30530 26-894): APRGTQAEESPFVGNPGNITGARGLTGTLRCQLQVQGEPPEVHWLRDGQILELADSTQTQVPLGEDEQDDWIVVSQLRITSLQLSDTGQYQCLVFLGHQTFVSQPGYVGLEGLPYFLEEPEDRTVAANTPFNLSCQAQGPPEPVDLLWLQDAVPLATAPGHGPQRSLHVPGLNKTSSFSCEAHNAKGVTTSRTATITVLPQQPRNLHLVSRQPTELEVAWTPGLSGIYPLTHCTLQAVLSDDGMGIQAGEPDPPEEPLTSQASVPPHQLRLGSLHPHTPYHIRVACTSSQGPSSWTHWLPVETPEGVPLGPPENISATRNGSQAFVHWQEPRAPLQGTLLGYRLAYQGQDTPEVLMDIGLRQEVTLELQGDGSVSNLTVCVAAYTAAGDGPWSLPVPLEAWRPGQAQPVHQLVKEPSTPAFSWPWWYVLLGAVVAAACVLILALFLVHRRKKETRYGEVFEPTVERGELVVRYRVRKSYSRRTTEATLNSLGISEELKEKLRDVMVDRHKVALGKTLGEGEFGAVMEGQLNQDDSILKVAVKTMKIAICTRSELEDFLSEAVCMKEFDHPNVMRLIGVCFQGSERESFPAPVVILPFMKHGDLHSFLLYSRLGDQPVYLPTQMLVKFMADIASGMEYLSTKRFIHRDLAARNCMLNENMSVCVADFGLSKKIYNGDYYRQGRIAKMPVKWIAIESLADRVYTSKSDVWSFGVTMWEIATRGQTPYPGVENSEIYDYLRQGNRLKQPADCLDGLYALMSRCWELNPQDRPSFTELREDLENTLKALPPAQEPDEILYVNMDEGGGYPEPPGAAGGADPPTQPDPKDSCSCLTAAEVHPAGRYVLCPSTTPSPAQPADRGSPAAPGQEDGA
Description: (§1) All reactions were terminated by addition of 20 μL of 70 mM EDTA. After a 180 min incubation, phosphorylated and unphosphorylated substrate peptides (Table 6) were separated in buffer supplemented with 1× CR-8 on a LabChip EZ Reader equipped with a 12-sipper chip. Data were analyzed using EZ Reader software.

MERTK = target: T2, MERTK (Homo sapiens, UniProt Q12866); test: Microfluidic capillary electrophoresis (MCE) kinase activity assay, Mer
T2 sequence (Q12866 21-999): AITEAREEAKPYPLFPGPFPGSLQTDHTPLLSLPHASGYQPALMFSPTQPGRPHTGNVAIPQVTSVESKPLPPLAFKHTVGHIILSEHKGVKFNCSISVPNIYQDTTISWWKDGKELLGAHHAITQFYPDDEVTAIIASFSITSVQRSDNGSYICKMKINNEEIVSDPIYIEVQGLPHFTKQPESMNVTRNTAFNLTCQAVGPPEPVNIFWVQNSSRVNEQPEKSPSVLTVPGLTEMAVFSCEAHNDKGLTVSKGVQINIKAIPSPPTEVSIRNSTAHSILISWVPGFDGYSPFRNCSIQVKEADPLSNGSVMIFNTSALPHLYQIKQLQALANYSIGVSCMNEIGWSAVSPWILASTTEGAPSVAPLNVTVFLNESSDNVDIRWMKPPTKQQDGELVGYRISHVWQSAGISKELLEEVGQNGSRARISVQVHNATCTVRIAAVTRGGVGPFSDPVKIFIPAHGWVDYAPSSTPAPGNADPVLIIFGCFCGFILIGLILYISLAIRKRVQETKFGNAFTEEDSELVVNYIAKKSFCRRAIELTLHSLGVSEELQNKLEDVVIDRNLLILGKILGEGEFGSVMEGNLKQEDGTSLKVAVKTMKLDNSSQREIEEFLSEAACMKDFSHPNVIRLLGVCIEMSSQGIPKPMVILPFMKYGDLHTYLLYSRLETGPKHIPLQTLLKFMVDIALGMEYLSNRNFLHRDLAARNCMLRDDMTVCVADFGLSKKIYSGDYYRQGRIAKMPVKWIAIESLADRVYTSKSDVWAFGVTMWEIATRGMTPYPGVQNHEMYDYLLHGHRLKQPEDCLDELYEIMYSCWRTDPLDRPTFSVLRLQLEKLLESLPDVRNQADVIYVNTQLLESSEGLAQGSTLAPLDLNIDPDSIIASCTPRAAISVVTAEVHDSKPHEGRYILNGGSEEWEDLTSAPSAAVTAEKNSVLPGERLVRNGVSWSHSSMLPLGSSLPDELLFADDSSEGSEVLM
Description: as §1

TYRO3 = target: T3, TYRO3 (Homo sapiens, UniProt Q06418); test: Microfluidic capillary electrophoresis (MCE) kinase activity assay, Tyro3
T3 sequence (Q06418 41-890): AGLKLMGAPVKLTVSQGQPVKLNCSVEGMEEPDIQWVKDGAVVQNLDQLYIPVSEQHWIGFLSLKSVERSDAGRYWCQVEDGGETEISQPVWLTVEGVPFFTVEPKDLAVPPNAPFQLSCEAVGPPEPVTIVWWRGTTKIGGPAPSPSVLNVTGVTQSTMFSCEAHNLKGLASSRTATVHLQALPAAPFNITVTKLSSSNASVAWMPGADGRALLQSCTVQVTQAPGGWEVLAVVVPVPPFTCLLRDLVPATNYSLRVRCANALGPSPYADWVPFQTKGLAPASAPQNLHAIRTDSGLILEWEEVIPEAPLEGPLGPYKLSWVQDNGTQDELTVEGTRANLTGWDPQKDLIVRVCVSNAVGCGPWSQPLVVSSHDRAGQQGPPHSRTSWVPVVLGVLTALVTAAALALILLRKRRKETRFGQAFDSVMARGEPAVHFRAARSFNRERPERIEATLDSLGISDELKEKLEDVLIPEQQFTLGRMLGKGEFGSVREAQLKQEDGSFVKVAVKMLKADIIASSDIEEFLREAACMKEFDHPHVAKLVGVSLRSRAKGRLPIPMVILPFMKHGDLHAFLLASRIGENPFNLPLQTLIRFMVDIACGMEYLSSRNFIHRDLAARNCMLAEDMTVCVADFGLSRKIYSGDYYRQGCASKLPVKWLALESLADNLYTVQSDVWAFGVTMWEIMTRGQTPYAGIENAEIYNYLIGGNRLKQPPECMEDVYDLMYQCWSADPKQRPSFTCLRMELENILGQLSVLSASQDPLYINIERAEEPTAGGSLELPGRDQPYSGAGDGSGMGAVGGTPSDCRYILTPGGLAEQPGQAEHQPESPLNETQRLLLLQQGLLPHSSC
Description: as §1

Compound | IC50 (AXL) [nM] | IC50 (MERTK; Table 2, MCE assay, ATP at Km) [nM] | IC50 (TYRO3; Table 2, MCE assay, ATP at Km) [nM] | other results
CN1CCN(Cc2ccc(-c3cn([C@H]4CC[C@H](O)CC4)c4nc(Nc5cc(F)cc(Cl)c5)ncc34)cc2)CC1 [Compound 7] | 10 to 100 | < 10 | < 10 | 
CN1CCN(Cc2ccc(-c3cn([C@H]4CC[C@H](O)CC4)c4nc(Nc5cc(Cl)c(F)c(Cl)c5)ncc34)cc2)CC1 [Compound 8] | 10 to 100 | 10 to 100 | < 10 | 
O[C@H]1CC[C@H](n2cc(-c3ccc(CN4CCC(F)(F)CC4)cc3)c3cnc(Nc4cc(C(F)(F)F)cc(C(F)(F)F)c4)nc32)CC1 [Compound 10] | 100 to 1000 | 100 to 1000 | 10 to 100 | 
O[C@H]1CC[C@H](n2cc(-c3ccc(CNCCN4CCOCC4)cc3)c3cnc(Nc4cc(C(F)(F)F)cc(C(F)(F)F)c4)nc32)CC1 [Compound 19] | 100 to 1000 | 100 to 1000 | < 10 | 
CN(C)C1CCN(Cc2ccc(-c3cn([C@H]4CC[C@H](O)CC4)c4nc(Nc5cc(F)cc(Cl)c5)ncc34)cc2)CC1 [Compound 22] | 10 to 100 | < 10 | < 10 | 
O[C@H]1CC[C@H](n2cc(-c3ccc(CN4CCC(F)(F)CC4)cc3)c3cnc(Nc4cc(F)cc(Cl)c4)nc32)CC1 [Compound 23] | 100 to 1000 | 10 to 100 | < 10 | 
CN1CCCN(Cc2ccc(-c3cn([C@H]4CC[C@H](O)CC4)c4nc(Nc5cc(F)cc(Cl)c5)ncc34)cc2)CC1 [Compound 24] | 10 to 100 | < 10 | < 10 | 
O[C@H]1CC[C@H](n2cc(-c3ccc(CN4CCSCC4)cc3)c3cnc(Nc4cc(F)cc(Cl)c4)nc32)CC1 [Compound 25] | 100 to 1000 | 100 to 1000 | < 10 | 
CC(C)(C)OC(=O)N1CCN(Cc2ccc(-c3cn([C@H]4CC[C@H](O)CC4)c4nc(Nc5cc(C(F)(F)F)cc(C(F)(F)F)c5)ncc34)cc2)CC1 [Compound 26] | 1000 to 30000 | 1000 to 30000 | 10 to 100 | 
O[C@H]1CC[C@H](n2cc(-c3ccc(CN4CCNCC4)cc3)c3cnc(Nc4cc(C(F)(F)F)cc(C(F)(F)F)c4)nc32)CC1 [Compound 27] | 100 to 1000 | 100 to 1000 | < 10 | 
CN1CCC(Nc2ccc(-c3cn([C@H]4CC[C@H](O)CC4)c4nc(Nc5cc(F)cc(Cl)c5)ncc34)cc2)CC1 [Compound 56] |  |  |  | IC50 (MERTK; Table 8): < 10 nM; IC50 (TYRO3; Table 8): < 10 nM
CN1CCN(S(=O)(=O)c2ccc(-c3cn([C@H]4CC[C@H](O)CC4)c4nc(Nc5cc(F)cc(Cl)c5)ncc34)cc2)CC1 [Compound 63] |  |  |  | IC50 (MERTK; Table 9): < 10 nM; IC50 (TYRO3; Table 9): < 10 nM
CN1CCN(Cc2ccc(-c3cn([C@H]4CC[C@H](O)CC4)c4nc(Nc5cccc(C(F)(F)F)c5)ncc34)cc2)CC1 [Compound 147] |  | < 10 | < 10 | 
CN1CCN(Cc2ccc(-c3cn([C@H]4CC[C@H](O)CC4)c4nc(Nc5cc(Cl)cc(C(F)(F)F)c5)ncc34)cc2)CC1 [Compound 148] |  | 10 to 100 | < 10 | 
CN1CCN(Cc2ccc(-c3cn([C@H]4CC[C@H](O)CC4)c4nc(Nc5cc(F)cc(C(F)(F)F)c5)ncc34)cc2)CC1 [Compound 149] |  | < 10 | < 10 | 
CC1CCN(Cc2ccc(-c3cn([C@H]4CC[C@H](O)CC4)c4nc(Nc5cc(F)cc(Cl)c5)ncc34)cc2)CC1 [Compound 151] |  | < 10 | < 10 | 
CN1CCN(Cc2ccc(-c3cn(C4CCOCC4)c4nc(Nc5cc(F)cc(Cl)c5)ncc34)cc2)CC1 [Compound 160] |  |  |  | IC50 (MERTK; Table 10): < 10 nM; IC50 (TYRO3; Table 10): < 10 nM
CN1CCN(Cc2ccc(-c3cn([C@H]4CC[C@H](NC(=O)OC(C)(C)C)CC4)c4nc(Nc5cc(C(F)(F)F)cc(C(F)(F)F)c5)ncc34)cc2)CC1 [Compound 161] |  |  |  | IC50 (TYRO3; Table 10): 10 to 100 nM
CN1CCN(Cc2ccc(-c3cn([C@H]4CC[C@H](NC(=O)OC(C)(C)C)CC4)c4nc(Nc5cc(F)cc(Cl)c5)ncc34)cc2)CC1 [Compound 163] |  |  |  | IC50 (MERTK; Table 10): 100 to 1000 nM; IC50 (TYRO3; Table 10): 10 to 100 nM
CN1CCN(Cc2ccc(-c3cn([C@H]4CC[C@H](N)CC4)c4nc(Nc5cc(F)cc(Cl)c5)ncc34)cc2)CC1 [Compound 164] |  |  |  | IC50 (MERTK; Table 10): < 10 nM; IC50 (TYRO3; Table 10): < 10 nM
CN1CCN(Cc2ccc(-c3cn(C4CC(CO)(CO)C4)c4nc(Nc5cc(C(F)(F)F)cc(C(F)(F)F)c5)ncc34)cc2)CC1 [Compound 165] |  |  |  | IC50 (MERTK; Table 10): 1000 to 30000 nM; IC50 (TYRO3; Table 10): < 10 nM
CN1CCN(Cc2ccc(-c3cc(C4CCC5(CC4)OCCO5)n4nc(Nc5cc(F)cc(Cl)c5)ncc34)cc2)CC1 [Compound 170, N-(3-chloro-5-fluorophenyl)-5-(4-((4-methylpiperazin-1-yl)methyl)phenyl)-7-(1,4-dioxaspiro[4.5]decan-8-yl)pyrrolo[2,1-f][1,2,4]triazin-2-amine] |  |  |  | IC50 (MERTK; Table 11): 10 to 100 nM; IC50 (TYRO3; Table 11): < 10 nM
CN1CCN(Cc2ccc(-c3cc(C4CCC(=O)CC4)n4nc(Nc5cc(F)cc(Cl)c5)ncc34)cc2)CC1 [Compound 171, 4-(2-((3-chloro-5-fluorophenyl)amino)-5-(4-((4-methylpiperazin-1-yl)methyl)phenyl)pyrrolo[2,1-f][1,2,4]triazin-7-yl)cyclohexan-1-one] |  |  |  | IC50 (MERTK; Table 11): 10 to 100 nM; IC50 (TYRO3; Table 11): < 10 nM
CN1CCN(Cc2ccc(-c3cn([C@H]4CC[C@H](O)CC4)c4nc(Nc5cc(F)cc(Cl)c5)ncc34)cn2)CC1 [Compound 172] |  |  |  | IC50 (MERTK; Table 12): < 10 nM; IC50 (TYRO3; Table 12): < 10 nM
CN1CCN(Cc2ccc(-c3cn([C@H]4CC[C@H](O)CC4)c4nc(Nc5cc(C(F)(F)F)cc(C(F)(F)F)c5)ncc34)cn2)CC1 [Compound 173] |  |  |  | IC50 (MERTK; Table 12): 100 to 1000 nM; IC50 (TYRO3; Table 12): < 10 nM
CN1CCN(Cc2ccc(-c3cn([C@H]4CC[C@H](O)CC4)c4nc(Nc5ccsc5)ncc34)cc2)CC1 [Compound 174] |  | < 10 | < 10 | 
CN1CCN(Cc2ccc(-c3cn([C@H]4CC[C@H](O)CC4)c4nc(Nc5cncc(Cl)c5)ncc34)cc2)CC1 [Compound 175] |  | < 10 | < 10 | 
